In PMC11793105, “A kalihinol analog disrupts apicoplast function and vesicular trafficking in P. falciparum malaria” (Science (New York, N.Y.), 2024):
Values joined by “and” are separate entries in the source; they are usually repeats but may differ in a detail not shown here. Equal entries are not always repeated. Where two headings read alike, the source gives them in different places.

Key:
[1] = test system: P. falciparum 3D7 parasites; experiment: Isopentenyl pyrophosphate (IPP) rescue assay; type: cell-based, Plasmodium falciparum; details: drug at IC80 for one IEC before IPP (200 μM)
From the text: Fig. 2. […] Nuclei are stained with 4’,6-diamidino-2-phenylindole (DAPI; blue). […] (B) Dose-dependent interactions between MED6-189 (blue) and various antimalarials with known mechanisms of action (red). […] The regression line represents a nonlinear regression (variable slope with four parameters), with significant differences considered if P < 0.05. […] Isobologram curves are expected to be parallel to the diagonal for additive drug pairs, concave for synergistic drug pairs, and convex for antagonistic drug pairs. […] The analysis was performed using a two-way ANOVA, n = 3, with P < 0.05 significance.
IPP is a product of the MEP/DOXP pathway, and its supplementation reduces susceptibility to MEP inhibitors. […] Parasites were drugged at 80% inhibitory concentrations (IC80) for one IEC before IPP (200 μM) supplementation.

hTERT = experiment: Human cell line activity, hTERT; type: cell-based; details: read-out: IC50 (µM) hTERT
[2] = Pharmacokinetic profile at 25 and 50 mg/Kg (Table S9b); type: in vivo, Male CD1 mouse; details: for Cmax: oral, blood; for AUC(0-inf): read-out: AUCINF_obs
Method: An Acquity ultra-performance liquid chromatography (UPLC) system (Waters Corp., Milford, MA, USA) couple to a triple quadrupole mass spectrometer (API 4000, AB Sciex, Foster City, CA, USA) was used for the analysis ([99]).
Blood concentration time data were analyzed by Non-Compartmental PK analysis using Phoenix WinNonlin software (Certara, NY, US) to calculate PK parameters. […]
were housed in cages (Tecniplast®). The cages contained autoclaved dust free corncob bedding […]
provided ad libitum. Environmental conditions: Photoperiods, simulated dawn/dusk facility, were […]
The temperature range was 22± 2 °C. […]
route, once a day, 10ml/kg). […]
Two mice were treated at 50
To confirm the data, 3 animals per dose
(hematology, clinical chemistry, and necropsy). Additionally in the same animals with the same […]
determination of blood level exposures and pharmacokinetic analysis. […]
Peripheral blood […]
samples (15 µL) were taken at frequent intervals, mixed with 30 µL of H2O milli Q and immediately frozen on dry ice. The frozen samples were stored at −80 °C until analysis. Vehicle-treated mice experienced the same blood-sampling regimen (table S9, S10).
Bioanalysis and pharmacokinetics analysis: LC-MS
Bioanalysis of in vivo samples: Sample pretreatment Before the analysis 15ul of blood samples were defrost at ambient temperature and mixture with 200ul of ACN:MeOH (80:20). After protein precipitation samples were filtered by 0.45um filter plate (Multiscreen Solvinert 0.45um FTPE, Millipore). The 2ul TFA (Trifluoroacetic acid, sigmaAldrich) were added to each filtered sample in order to derivatize the compound to formamide analogue. This process occurs spontaneously.
LC-MS analysis An Acquity Ultra-Performance liquid chromatography (UPLC) system (Waters Corp., Milford, MA, USA) couple to a triple quadrupole mass spectrometer (API 4000™, AB Sciex, Foster City, CA, USA) was used for the analysis. The MS/MS transition was 311.340 / […]
The chromatographic separation was carried out at 0.4ml/min in a Acquity UPLC™ BEH C18 column (50x2.1 mm i.d., […]; Waters Corp.) at 40 °C with Acetonitrile (sigmaAldrich) and 0.1% formic acid as eluents.
Pharmacokinetic analysis Blood concentration time data were analyzed by Non-Compartmental PK analysis using Phoenix WinNonlin software (Certara NY, US) to calculate PK parameters. The maximum observed concentration (Cmax) and the time to reach it (Tmax), were determined. The area under concentration-time curve from dosing at time zero to the last measured concentration […]
time (AUClast) and the total area under concentration-time curve from time zero extrapolated to infinity (AUCinf), were calculated using a linear trapezoidal rule. […]

[3] = male, CD1, mouse, whole blood, po, 25 mg/kg, Mean
[4] = male, CD1, mouse, whole blood, po, 50 mg/kg, Mean
[5] = male, CD1, mouse, whole blood, po, 50 mg/kg, individual mice

## [C-]#[N+][C@]1(C)CC[C@H]2[C@@H]([C@@H](C(C)C)CC[C@]2(C)[N+]#[C-])[C@H]1O [MED6-189]
[1]
  rescue of parasites by IPP supplementation: can only be rescued by IPP for one additional cycle
hTERT
  IC50: 26 µM
[2]; 25 mg/Kg, Mean
  AUCINF_D_obs: 1505 kg·ng·h/mL/mg
  AUC_%Extrap_obs: 0.955%
  AUClast_D: 1491.7 kg·ng·h/mL/mg
  Cmax_D: 188.6 kg·ng/mL/mg
  HL_Lambda_z: 3.711 h
[2]; 25 mg/Kg, individual mice
  AUCINF_D_obs: 2105.77 kg·ng·h/mL/mg and 904.22 kg·ng·h/mL/mg
  AUCINF_obs: 52.6444 µg·h/mL and 22.6056 µg·h/mL
  AUC_%Extrap_obs: 0.78% and 1.13%
  AUClast: 52.2327 µg·h/mL and 22.3505 µg·h/mL
  AUClast_D: 2089.31 kg·ng·h/mL/mg and 894.02 kg·ng·h/mL/mg
  Cmax_D: 232.4 kg·ng/mL/mg and 144.8 kg·ng/mL/mg
  HL_Lambda_z: 3.31 h and 4.11 h
[2]; 25 mg/Kg, individual mice 1 and 2
  Cmax: 3.62 µg/mL
[2]; 50 mg/Kg, Mean
  AUCINF_D_obs: 2099.8 kg·ng·h/mL/mg
  AUC_%Extrap_obs: 4.415%
  AUClast_D: 2014.32 kg·ng·h/mL/mg
  Cmax_D: 158.4 kg·ng/mL/mg
  HL_Lambda_z: 4.536 h
[2]; 50 mg/Kg, individual mice
  AUCINF_D_obs: 1882 kg·ng·h/mL/mg and 2317.54 kg·ng·h/mL/mg
  AUCINF_obs: 115.877 µg·h/mL
  AUC_%Extrap_obs: 7.74% and 1.09%
  AUClast: 114.617 µg·h/mL
  AUClast_D: 1736.3 kg·ng·h/mL/mg and 2292.34 kg·ng·h/mL/mg
  Cmax_D: 137.2 kg·ng/mL/mg and 179.6 kg·ng/mL/mg
  HL_Lambda_z: 5.74 h and 3.33 h
[2]; 50 mg/Kg, individual mice 1 and 2
  Cmax: 8.98 µg/mL
[2]; [3]
  AUC(0-t): 37.3 µg·h/mL
  AUC(0-inf): 37.6 µg·h/mL
[2]; male, CD1, mouse, whole blood, po, 25 mg/kg, Mean of 2 mice, read-out: Cmax
  Cmax: 4.71 µg/mL
[2]; male, CD1, mouse, whole blood, po, 25 mg/kg, individual mice 1 and 2, read-out: Cmax
  Cmax: 5.81 µg/mL
[2]; [4]
  AUC(0-t): 101 µg·h/mL
  AUC(0-inf): 105 µg·h/mL
[2]; [5]
  AUC(0-t): 86.8 µg·h/mL
  AUC(0-inf): 94.1 µg·h/mL
[2]; male, CD1, mouse, whole blood, po, 50 mg/kg, Mean of 2 mice, read-out: Cmax
  Cmax: 7.92 µg/mL
[2]; male, CD1, mouse, whole blood, po, 50 mg/kg, individual mice 1 and 2, read-out: Cmax
  Cmax: 6.86 µg/mL
[2]; male, CD1, mouse, whole blood, po, 25 mg/Kg, individual mice
  Tmax: 4 h
[2]; male, CD1, mouse, whole blood, po, 50 mg/Kg, individual mice
  Tmax: 7 h
